Paper PMC11800159, “Insertion of a Divergent GAF-like Domain Defines a Novel Family of YcgR Homologues That Bind c-di-GMP in Leptospirales” (ACS Omega, 2025)

Target: T1, YcgRLIC_11920
T1 construct: gene LIC_11920; full-length protein, N-terminal 6x histidine tag
Assay: ITC ([…] °C; […] at […] °C), […] c-di-GMP:protein stoichiometry
Format: binding

With `Nc1nc2c(ncn2[C@@H]2O[C@@H]3COP(=O)(O)O[C@H]4[C@@H](O)[C@H](n5cnc6c(=O)[nH]c(N)nc65)O[C@@H]4COP(=O)(O)O[C@H]3[C@H]2O)c(=O)[nH]1` [c-di-GMP] the Kd was 60 nM.
